# Reference: patent US20240317762A1, “PHTHALAZINONE-BASED PARP-1 INHIBITORS” (Oregon Health & Science University, priority 2021, published 2024)
# Columns and labels:
# PARP-1 [1] = molecular target: T1, PARP-1 (Homo sapiens, UniProt P09874); assay: in vitro PARP-1 auto-PARylation assay (SRPK2 plate assay); type: biochemical; parameters: The full-length WT PARP-1 protein used in these assays; made in house
# Experimental: IC50 SRPK2 Plate Assays were performed as previously described (21). Log(inhibitor) versus response curves were fit using non-linear regression with variable slope. Mean IC50 values for each compound were derived from a minimum of three separate replicates.
# [2] = test system: Ewing sarcoma cell line EW-8; assay: ES-8 viability screen (CellTiter-Glo); type: cell-based
# Experimental: Cell viability was measured using the CellTiter-Glo (Promega, G7573) assay and read using an Envision (PerkinElmer) plate reader. Compound source plates (96-well) were prepared by solubilizing each drug in DMSO to a maximum concentration of 1-50 mM, then arraying samples in 10-point dose-response with 3-fold dilution. Positive and negative controls (staurosporine at 10 mM and DMSO, respectively) were added to the source plates. Drug was transferred from the source plate to the assay plate using a Biomek FX (Beckman Coulter) liquid handler equipped with a pin tool which transferred ˜100 nl into a final volume of 100 μl, resulting in ˜1000-fold dilution. At least two biological replicates (assay performed on different day with same drug plate and independent cell preparation) were obtained for each drug. To analyze the assay, the relative light unit signal in each well was first log 2 transformed, then normalized by subtracting the mean of the negative controls wells on each plate.
# (§1) FIGS. 6A-6E. […] 0.1 μM ad-olaparib (chemical structure indicated in panel a) was added to the cells for 1 hour before undergoing a UV treatment for 5 minutes in cold PBS. Cells were lysed and sonicated in PBS (1% Triton X-100+1% SDS), clicked with TAMRA-azide and run out on SDS-PAGE. The gel was imaged for TAMRA and probed for PARP-1 (Bethyl Laboratories), and alpha-tubulin (X). FIGS. 6B, 6D) Quantification of western blot images. TAMRA or ADPr values are normalized to PARP-1 within each replicate and plotted as percentage compared to DMSO. Error bars indicate SEM (n=3-4). Statistical significance of off-rate calculated via multiple t-tests (p<0.05). […] Cells were subsequently treated with PARGi (10 μM) for 30 minutes, lysed using RIPA buffer, run out on SDS-PAGE, and probed for ADPr (Cell Signaling) and PARP-1 (Bethyl Laboratories). FIG. 6E) ES-8 cells were treated with indicated concentration of inhibitors for 72 hours before measuring cell viability using the CellTiter-Glo kit (Promega G7573). IC50 values were calculated using R statistical software.
# PARP-1 [3] = molecular target: T1, PARP-1; assay: PARP-1 auto-PARylation activity assay in cells; type: cell-based
# Experimental: Cells were washed with PBS, and lysed in RIPA buffer (50 mM Tris-HCl [pH 8.0], 150 mM NaCl, 0.1% SDS, 1% Triton X-100, 1× cOmplete™ protease inhibitors (Roche), and 1 μM Veliparib). […] Following quantification, 4× Laemmli sample buffer with 5% β-mercaptoethanol was added to 25-50 μg of protein.
# Membrane blots were blocked with 5% milk-PBST for 1 h at RT, followed by incubation with a rabbit pan-ADP-ribose binding reagent (Cell Signaling), a rabbit PARP-1 antibody (Bethyl Laboratories), or a mouse b-actin antibody (Santa Cruz Biotechnology) for 2 h at RT, followed by incubation with HRP-conjugated secondary antibodies. […] Blots were imaged for chemiluminescent signal on a ChemiDoc MP system (BioRad). Statistical significance was established through multiple unpaired t-tests with nonlinear regression fit analysis.
# FIGS. 5A-5F. […] An unlabeled competitor was added and the decrease in fluorescence polarization was measured across time. […] Error bars represent SEM. […] Error bars represent SEM. […] Cells were subsequently lysed using RIPA buffer, run out on SDS-PAGE, and probed for ADPr (Cell Signaling) and PARP-1 (Bethyl Laboratories). FIG. 5F) Quantification of western blot images. ADPr values are normalized to PARP-1 within each replicate and plotted as percentage compared to DMSO. Error bars indicate SEM (n=3).
# PARP-1 [4] = molecular target: T1, PARP-1; assay: fluorescence polarization DNA binding affinity assay; details: 5 μM inhibitor; compared to DMSO control
# Text: The full-length WT PARP-1 protein used in these assays was purified as described previously (30).
# HEK 293T cells = assay: cell proliferation (MTT) assay; type: cell-based, human; details: MTT, 72 h
# Experimental: HEK 293T or HEK 293 PARP-1 KO cells were seeded in a 96 well plate at 1000-2000 cells per well. Following an overnight incubation, MTT reagent, 3-(4,5-dimethylthiazol-2-yl)-2,5-diphenyltetrazolium bromide, or a dosage curve of indicated inhibitor was added to each well in quadruplicate. Following a 3-hour incubation at 37° C., wells containing MTT reagent, were aspirated and lysed with 100 μl DMSO. These wells acting as a no growth control were collected, saved @ −20° C., and replaced with 100 μl water. The plate was placed back into the incubator for a total of 72 hours of inhibitor treatment prior to MTT reagent being added for a final time. Following a 3 hour incubation with the reagent, wells were aspirated, and 100 μl DMSO were added to each well, while the no growth control sample was added back to the plate. Absorbance was read on a SpectraMaxi3 plate reader (Molecular Devices). Percent growth was calculated for analysis. Statistical significance was assigned using individual t-tests between conditions for each inhibitor dosage.
# Error bars represent SEM. […] Error bars represent SEM. […] Error bars represent SEM.
# PARP-1 [5] = molecular target: T1, PARP-1; assay: in-cell competition labeling with ad-olaparib photoaffinity probe; type: cell-based
# Experimental: Photocrosslinking in intact cells. HEK293 CRL and PARP-1 KO cells were grown in DMEM for 2 days in a 60 mm dish for 2 days to reach 80-90% confluency. […] Cells were then washed once with PBS, covered with PBS and irradiated for 5 min in the RPR-100 Photochemical Reactor (Rayonet) equipped with 350 nm lamps at 4° C. Cells were lysed on ice in 1% SDS, 1% Triton X-100 and EDTA-free protease inhibitor cocktail (Roche) in PBS for 10 min and then probe sonicated to shear the nuclear DNA. Protein concentration was determined with Bio-Rad Protein assay. The lysate was diluted in PBS to a final Click reaction concentration of 2 mg/mL.
# Click Chemistry. Reaction was started by mixing 30 μL of each sample with 15 μL of PBS based 3× Click reaction mixture containing (final concentrations): 100 μM Tris[(1-benzyl-1H-1,2,3triazol-4-yl)methyl]amine (TBTA, Click Chemistry Tools), 1 mM CuSO4, 40 μM tetramethylrhodamine (TAMRA)-azide (Click Chemistry Tools), 1 mM Tris(2-carboxyethyl)phosphine hydrochloride (TCEP, Thermo Fisher) and 15% tert-Butyl alcohol, and let to procced for 1 h at RT while gently shaking. Reactions were stopped by adding 4× Laemmli sample buffer and boiling at 95° C. for 5 min.
# In gel fluorescence, western blotting and quantification. Samples were loaded to 8 or 10% SDS-polyacrylamide gels and run until the dye front left the gel. First, in-gel fluorescence was detected with ChemiDoc XRS+ (Biorad) using Rhodamine filter and then the proteins were transferred on nitrocellulose membrane, the membrane was blocked and probed for PARP-1 (1:3000) and alpha-tubulin (1:1000). Both antibodies were from cell signaling. Band intensities we quantified with ImageJ.
# as §1
# PARP-1 [6] = molecular target: T1, PARP-1; assay: PARP-1 PARylation after washout (off-rate analysis); type: cell-based; details: 300 nM, 30 minutes, no washout; read-out: inhibition of PARP-1-mediated PARylation activity prior to washout
# Experimental: For off-rate analysis, after 30 minute pre-treatment with indicated inhibitors, cells were washed once before incubating for 0, 3, 6, or 12 hours in fresh media. Following release times, cells were incubated with PDD 00017273 (10 μM) for 30 minutes before proceeding using the same western blot protocol detailed above. Statistical significance was established through multiple unpaired t-tests with nonlinear regression fit analysis.
# as §1, with “FIG. 6E) ES-8 cells were treated with indicated concentration of inhibitors for 72 hours before measuring cell viability using the CellTiter-Glo kit (Promega G7573).” left out
# T1 sequence (P09874 whole entry): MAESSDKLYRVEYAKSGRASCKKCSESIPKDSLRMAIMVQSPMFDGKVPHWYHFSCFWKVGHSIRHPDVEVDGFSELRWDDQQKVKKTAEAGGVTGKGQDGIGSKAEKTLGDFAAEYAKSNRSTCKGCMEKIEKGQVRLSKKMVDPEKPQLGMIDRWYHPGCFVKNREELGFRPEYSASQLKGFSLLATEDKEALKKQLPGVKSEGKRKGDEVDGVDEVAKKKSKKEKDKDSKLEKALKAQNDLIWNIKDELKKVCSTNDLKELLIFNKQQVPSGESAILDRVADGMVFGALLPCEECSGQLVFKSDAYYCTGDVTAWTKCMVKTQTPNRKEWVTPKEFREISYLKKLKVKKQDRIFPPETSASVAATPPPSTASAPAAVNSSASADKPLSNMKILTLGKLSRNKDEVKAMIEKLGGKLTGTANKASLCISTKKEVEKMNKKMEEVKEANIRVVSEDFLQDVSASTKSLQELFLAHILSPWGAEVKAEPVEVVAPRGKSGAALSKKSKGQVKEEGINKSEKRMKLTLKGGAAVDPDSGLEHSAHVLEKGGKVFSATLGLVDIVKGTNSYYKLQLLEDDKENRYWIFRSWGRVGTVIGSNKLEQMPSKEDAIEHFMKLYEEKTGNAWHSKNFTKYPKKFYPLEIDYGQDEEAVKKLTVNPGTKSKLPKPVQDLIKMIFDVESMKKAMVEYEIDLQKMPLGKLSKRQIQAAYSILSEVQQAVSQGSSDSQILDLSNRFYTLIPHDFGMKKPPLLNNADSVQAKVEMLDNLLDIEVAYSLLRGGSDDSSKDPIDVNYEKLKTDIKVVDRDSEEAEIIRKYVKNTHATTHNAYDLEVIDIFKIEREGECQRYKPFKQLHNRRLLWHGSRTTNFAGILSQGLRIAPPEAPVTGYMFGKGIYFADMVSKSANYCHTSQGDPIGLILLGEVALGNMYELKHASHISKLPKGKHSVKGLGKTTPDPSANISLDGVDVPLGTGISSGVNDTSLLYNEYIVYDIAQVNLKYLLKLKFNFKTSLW
smiles,measurement,setting,value
"C[C@H]1Cn2c(nnc2C(C)(F)F)CN1C(=O)c1cc(Cc2n[nH]c(=O)c3ccccc23)ccc1F [Pip6, (S)-4-(3-(3-(1,1-difluoroethyl)-6-methyl-5,6,7,8-tetrahydro-[1,2,4]triazolo[4,3-a]pyrazine-7-carbonyl)-4-fluorobenzyl)phthalazin-1(2H)-one]",potency against PARP-1 auto-PARylation compared with AZ0108,PARP-1 [1],equipotent
same,fold more cytotoxic than AZ0108 in Ewing sarcoma cells,[2],~80 fold
same,Fold Difference to Pip6,[2]; ratio of EC50 values,1
same,EC50,"[2]; viability, 72 h",0.24 nM
same,EC50 (nM),"[2]; viability, 72 h",sub-nanomolar
same,fold more potent than AZ0108 in inhibiting PARP-1 PARylation in HEK 293 cells,PARP-1 [3],~20 fold
same,EC50,"PARP-1 [3]; 30 min inhibitor, then PARG inhibitor PDD00017273, read-out: EC50 inhibiting PARP-1 PARylation in HEK 293 cells",2.3 nM
same,IC50,"PARP-1 [3]; FIG. 5F, nonlinear regression, read-out: IC50 of dose curves, quantification of western blot (ADPr normalized to PARP-1)",2.26 nM
same,effect on the affinity of PARP-1 for nicked DNA,PARP-1 [4],more pronounced effect on DNA binding than Pip5
same,EC50,"HEK 293T cells; Homo sapiens, HEK-293T, read-out: EC50 cell growth",0.94 nM
same,potency in inhibiting cell growth compared with AZ0108,HEK 293T cells,substantially more potent than AZ0108
same,labeling of PARP-1 by ad-olaparib after pre-treatment,"PARP-1 [5]; 10 μM inhibitor, 0.1 μM ad-olaparib",substantially blocked
same,residence time on PARP-1 compared to AZ0108,PARP-1 [5]; in cells and in vitro,longer residence time
same,recovery of labeling of PARP-1 by ad-olaparib after washout,PARP-1 [5]; washout (3 h),not recovered
same,inhibition at 0.3 µM,PARP-1 [6],> 90%
